Results taken from the NIST ThermoML archive (doi:10.1016/j.jct.2016.10.031).

Assay: molar heat capacity at constant pressure
Settings: 101.33 kPa, Small (less than 1 g) adiabatic calorimetry

CC(C)(C)c1ccc(Oc2ccc([N+](=O)[O-])cc2)cc1 [1-(tert-butyl)-4-(4-nitrophenoxy)benzene]
Settings	molar heat capacity at constant pressure [J/K/mol]
147.54 K, Crystal	187.32
148.06 K, Glass	190.82
148.34 K, Crystal	188.16
148.86 K, Glass	191.65
149.14 K, Crystal	188.9
149.66 K, Glass	192.65
149.94 K, Crystal	189.82
150 K, Crystal	189.82
150.46 K, Glass	193.56
150.74 K, Crystal	190.57
151.26 K, Glass	194.31
151.54 K, Crystal	191.48
152.06 K, Glass	195.14
152.35 K, Crystal	192.31
152.86 K, Glass	195.97
153.15 K, Crystal	193.23
153.66 K, Glass	196.89
153.95 K, Crystal	194.14
154.46 K, Glass	197.88
154.75 K, Crystal	194.81
155.26 K, Glass	198.63
155.55 K, Crystal	195.89
156.06 K, Glass	199.63
156.35 K, Crystal	196.72
156.86 K, Glass	200.38
157.15 K, Crystal	197.47
157.66 K, Glass	201.21
157.95 K, Crystal	198.13
158.46 K, Glass	201.96
158.75 K, Crystal	199.21
159.26 K, Glass	202.87
159.55 K, Crystal	200.21
160 K, Crystal	200.63
160.06 K, Glass	203.79
160.35 K, Crystal	201.13
160.85 K, Glass	204.7
161.15 K, Crystal	202.12
161.95 K, Crystal	202.71
162.45 K, Glass	206.7
162.75 K, Crystal	203.62
163.25 K, Glass	207.28
163.55 K, Crystal	204.37
164.04 K, Glass	208.36
164.35 K, Crystal	205.62
164.84 K, Glass	209.11
165.15 K, Crystal	206.53
165.64 K, Glass	209.94
165.95 K, Crystal	207.36
166.44 K, Glass	210.52
166.75 K, Crystal	208.11
167.23 K, Glass	211.35
167.55 K, Crystal	209.11
168.03 K, Glass	212.35
168.34 K, Crystal	210.11
168.81 K, Glass	213.35
169.14 K, Crystal	210.44
169.61 K, Glass	214.18
169.94 K, Crystal	211.44
170 K, Crystal	211.44
170.41 K, Glass	214.93
170.73 K, Crystal	212.93
171.2 K, Glass	216.18
171.53 K, Crystal	213.1
172 K, Glass	217.01
172.33 K, Crystal	214.01
172.79 K, Glass	217.67
173.12 K, Crystal	214.76
173.59 K, Glass	218.42
173.92 K, Crystal	215.68
174.38 K, Glass	219.58
174.72 K, Crystal	216.59
175.18 K, Glass	220.25
175.51 K, Crystal	218.01
175.97 K, Glass	221.25
176.31 K, Crystal	218.34
176.77 K, Glass	221.83
177.11 K, Crystal	219.25
177.56 K, Glass	222.49
177.91 K, Crystal	219.83
178.36 K, Glass	223.49
178.7 K, Crystal	220.33
179.15 K, Glass	224.32
179.5 K, Crystal	221.5
179.94 K, Glass	224.99
180 K, Crystal	222.33
180.3 K, Crystal	222.33
180.74 K, Glass	225.74
181.08 K, Crystal	223.58
181.52 K, Glass	226.98
181.88 K, Crystal	224.41
182.67 K, Crystal	224.99
183.09 K, Glass	227.73
183.47 K, Crystal	225.82
183.89 K, Glass	229.73
184.26 K, Crystal	226.74
184.68 K, Glass	230.39
185.06 K, Crystal	227.57
185.47 K, Glass	231.56
185.85 K, Crystal	228.48
186.26 K, Glass	232.14
186.65 K, Crystal	229.15
187.05 K, Glass	232.97
187.44 K, Crystal	230.48
187.84 K, Glass	233.97
188.22 K, Crystal	231.31
188.63 K, Glass	234.63
189.02 K, Crystal	232.14
189.42 K, Glass	235.47
189.81 K, Crystal	233.3
190 K, Crystal	233.22
190.21 K, Glass	236.46
190.6 K, Crystal	233.97
190.99 K, Glass	237.29
191.39 K, Crystal	234.63
191.78 K, Glass	237.88
192.19 K, Crystal	235.38
192.57 K, Glass	238.87
192.98 K, Crystal	236.3
193.36 K, Glass	239.79
193.75 K, Crystal	236.96
194.13 K, Glass	240.95
194.54 K, Crystal	237.79
194.91 K, Glass	241.45
195.33 K, Crystal	238.54
195.7 K, Glass	241.95
196.12 K, Crystal	239.46
196.49 K, Glass	243.2
196.91 K, Crystal	240.62
197.27 K, Glass	243.95
197.7 K, Crystal	241.29
198.06 K, Glass	245.11
198.49 K, Crystal	242.12
198.84 K, Glass	245.94
199.28 K, Crystal	243.03
199.63 K, Glass	246.69
200 K, Crystal	244.28
200.07 K, Crystal	244.03
200.62 K, Glass	248.02
201.06 K, Crystal	245.28
202.26 K, Crystal	246.86
203 K, Glass	251.26
203.46 K, Crystal	247.94
204.2 K, Glass	252.18
204.66 K, Crystal	249.18
205.4 K, Glass	253.42
205.86 K, Crystal	250.85
206.6 K, Glass	254.76
207.05 K, Crystal	252.26
207.79 K, Glass	256.09
208.26 K, Crystal	253.26
208.99 K, Glass	257.5
209.45 K, Crystal	254.42
210 K, Crystal	255.34
